Data from ChEMBL document CHEMBL3994622, “Design and synthesis of new RAF kinase-inhibiting antiproliferative quinoline derivatives. Part 2: Diarylurea derivatives” (Eur J Med Chem, 2017).

How the values were obtained:
Assay type in all cases: functional
[1] = test system: RPMI-8226; experiment: Growth inhibition of human RPMI8226 cells assessed as cell growth at 0.003 uM incubated for 48 hrs by sulforhodamine B assay relative to control; conditions: RPMI-8226, 48 h, read-out: Activity
[2] = test system: K562; experiment: Growth inhibition of human K562 cells assessed as cell growth at 0.003 uM incubated for 48 hrs by sulforhodamine B assay relative to control; conditions: K562, 48 h, read-out: Activity
[3] = test system: HCC 2998; experiment: Growth inhibition of human HCC2998 cells assessed as cell growth at 0.003 uM incubated for 48 hrs by sulforhodamine B assay relative to control; conditions: HCC 2998, 48 h, read-out: Activity
[4] = test system: HCT-15; experiment: Growth inhibition of human HCT15 cells assessed as cell growth at 30 uM incubated for 48 hrs by sulforhodamine B assay relative to control; conditions: HCT-15, 48 h, read-out: Activity
[5] = test system: T47D; experiment: Growth inhibition of human T47D cells assessed as cell growth at 0.3 uM incubated for 48 hrs by sulforhodamine B assay relative to control; conditions: read-out: Activity
[6] = test system: MCF7; experiment: Growth inhibition of human MCF7 cells assessed as cell growth at 0.3 uM incubated for 48 hrs by sulforhodamine B assay relative to control; conditions: MCF7, 48 h, read-out: Activity
[7] = test system: NCI/ADR-RES; experiment: Growth inhibition of human NCI/ADR-RES cells assessed as cell growth at 0.03 uM incubated for 48 hrs by sulforhodamine B assay relative to control; conditions: read-out: Activity
[8] = test system: IGROV-1; experiment: Growth inhibition of human IGROV1 cells assessed as cell growth at 0.3 uM incubated for 48 hrs by sulforhodamine B assay relative to control; conditions: IGROV-1, 48 h, read-out: Activity
[9] = test system: SNB-19; experiment: Growth inhibition of human SNB19 cells assessed as cell growth at 30 uM incubated for 48 hrs by sulforhodamine B assay relative to control; conditions: SNB-19, 48 h, read-out: Activity
[10] = test system: NCI-H522; experiment: Growth inhibition of human NCI-H522 cells assessed as cell growth at 0.003 uM incubated for 48 hrs by sulforhodamine B assay relative to control; conditions: NCI-H522, 48 h, read-out: Activity
[11] = test system: MDA-MB-435; experiment: Growth inhibition of human MDA-MB-435 cells assessed as cell growth at 30 uM incubated for 48 hrs by sulforhodamine B assay relative to control; conditions: MDA-MB-435, 48 h, read-out: Activity
[12] = test system: RXF 393; experiment: Growth inhibition of human RXF393 cells assessed as cell growth at 3 uM incubated for 48 hrs by sulforhodamine B assay relative to control; conditions: RXF 393, 48 h, read-out: Activity
[13] = test system: NCI/ADR-RES; experiment: Growth inhibition of human NCI/ADR-RES cells assessed as cell growth at 3 uM incubated for 48 hrs by sulforhodamine B assay relative to control; conditions: read-out: Activity
[14] = test system: ACHN; experiment: Growth inhibition of human ACHN cells assessed as cell growth at 30 uM incubated for 48 hrs by sulforhodamine B assay relative to control; conditions: read-out: Activity
[15] = test system: HL-60(TB); experiment: Growth inhibition of human HL-60(TB) cells assessed as cell growth at 30 uM incubated for 48 hrs by sulforhodamine B assay relative to control; conditions: HL-60, 48 h, read-out: Activity
[16] = test system: PC-3; experiment: Growth inhibition of human PC3 cells assessed as cell growth at 0.03 uM incubated for 48 hrs by sulforhodamine B assay relative to control; conditions: PC-3, 48 h, read-out: Activity
[17] = test system: A549; experiment: Growth inhibition of human A549/ATCC cells assessed as cell growth at 0.003 uM incubated for 48 hrs by sulforhodamine B assay relative to control; conditions: A549, 48 h, read-out: Activity
[18] = test system: SN12C; experiment: Growth inhibition of human SN12C cells assessed as cell growth at 30 uM incubated for 48 hrs by sulforhodamine B assay relative to control; conditions: read-out: Activity
[19] = test system: COLO 205; experiment: Growth inhibition of human COLO205 cells assessed as cell growth at 3 uM incubated for 48 hrs by sulforhodamine B assay relative to control; conditions: COLO 205, 48 h, read-out: Activity
[20] = test system: CCRF-CEM; experiment: Growth inhibition of human CCRF-CEM cells assessed as cell growth at 3 uM incubated for 48 hrs by sulforhodamine B assay relative to control; conditions: read-out: Activity
[21] = test system: SW-620; experiment: Growth inhibition of human SW620 cells assessed as cell growth at 100 uM incubated for 48 hrs by sulforhodamine B assay relative to control; conditions: SW-620, 48 h, read-out: Activity
[22] = test system: SNB-75; experiment: Growth inhibition of human SNB75 cells assessed as cell growth at 10 uM incubated for 48 hrs by sulforhodamine B assay relative to control; conditions: SNB-75, 48 h, read-out: Activity
[23] = test system: Malme-3M; experiment: Growth inhibition of human MALME-3M cells assessed as cell growth at 1 uM incubated for 48 hrs by sulforhodamine B assay relative to control; conditions: read-out: Activity
[24] = test system: NCI-H23; experiment: Growth inhibition of human NCI-H23 cells assessed as cell growth at 1 uM incubated for 48 hrs by sulforhodamine B assay relative to control; conditions: NCI-H23, 48 h, read-out: Activity
[25] = test system: SF-295; experiment: Growth inhibition of human SF295 cells assessed as cell growth at 10 uM incubated for 48 hrs by sulforhodamine B assay relative to control; conditions: SF-295, 48 h, read-out: Activity
[26] = test system: EKVX; experiment: Growth inhibition of human EKVX cells assessed as cell growth at 10 uM incubated for 48 hrs by sulforhodamine B assay relative to control; conditions: read-out: Activity
[27] = test system: HT-29; experiment: Growth inhibition of human HT-29 cells assessed as cell growth at 0.01 uM incubated for 48 hrs by sulforhodamine B assay relative to control; conditions: HT-29, 48 h, read-out: Activity
[28] = test system: SN12C; experiment: Growth inhibition of human SN12C cells assessed as cell growth at 10 uM incubated for 48 hrs by sulforhodamine B assay relative to control; conditions: read-out: Activity
[29] = test system: SF-539; experiment: Growth inhibition of human SF539 cells assessed as cell growth at 0.1 uM incubated for 48 hrs by sulforhodamine B assay relative to control; conditions: SF-539, 48 h, read-out: Activity
[30] = test system: HCC 2998; experiment: Growth inhibition of human HCC2998 cells assessed as cell growth at 0.1 uM incubated for 48 hrs by sulforhodamine B assay relative to control; conditions: HCC 2998, 48 h, read-out: Activity
[31] = test system: NCI-H23; experiment: Growth inhibition of human NCI-H23 cells assessed as cell growth at 0.01 uM incubated for 48 hrs by sulforhodamine B assay relative to control; conditions: NCI-H23, 48 h, read-out: Activity
[32] = test system: IGROV-1; experiment: Growth inhibition of human IGROV1 cells assessed as cell growth at 0.1 uM incubated for 48 hrs by sulforhodamine B assay relative to control; conditions: IGROV-1, 48 h, read-out: Activity
[33] = test system: EKVX; experiment: Growth inhibition of human EKVX cells assessed as cell growth at 100 uM incubated for 48 hrs by sulforhodamine B assay relative to control; conditions: read-out: Activity
[34] = test system: SR; experiment: Growth inhibition of human SR cells assessed as cell growth at 100 uM incubated for 48 hrs by sulforhodamine B assay relative to control; conditions: read-out: Activity
[35] = test system: SF-268; experiment: Growth inhibition of human SF268 cells assessed as cell growth at 1 uM incubated for 48 hrs by sulforhodamine B assay relative to control; conditions: SF-268, 48 h, read-out: Activity

| Compound | growth at 0.003 µM [1] | growth at 0.003 µM [2] | growth at 0.003 µM [3] | growth at 30 µM [4] | growth at 0.3 µM [5] | growth at 0.3 µM [6] | growth at 0.03 µM [7] | growth at 0.3 µM [8] | growth at 30 µM [9] | growth at 0.003 µM [10] | growth at 30 µM [11] | growth at 3 µM [12] | growth at 3 µM [13] | growth at 30 µM [14] | growth at 30 µM [15] | growth at 0.03 µM [16] | growth at 0.003 µM [17] | growth at 30 µM [18] | growth at 3 µM [19] | growth at 3 µM [20] | other results |
| --- | --- | --- | --- | --- | --- | --- | --- | --- | --- | --- | --- | --- | --- | --- | --- | --- | --- | --- | --- | --- | --- |
| COc1cc2cc(Oc3ccc(NC(=O)Nc4ccc(Cl)c(C(F)(F)F)c4)cc3)c(C)nc2cc1OC | 100% | 95% | 102% | -76% | 92% | 97% | 98% | 117% | -87% | 91% | -46% | 10% | 8% | -85% | -22% | 94% | 94% | -56% | -67% | -2% | – |
| COc1cc2cc(Oc3ccc(NC(=O)Nc4ccc(Cl)c(Cl)c4)cc3)c(C)nc2cc1OC | – | – | – | – | – | – | – | – | – | – | – | – | – | – | – | – | – | – | – | – | growth at 100 µM [21]: -68%; growth at 10 µM [22]: -7%; growth at 1 µM [23]: 109%; growth at 1 µM [24]: 89%; growth at 10 µM [25]: -22%; growth at 10 µM [26]: -2%; growth at 0.01 µM [27]: 108%; growth at 10 µM [28]: 19%; growth at 0.1 µM [29]: 103%; growth at 0.1 µM [30]: 101%; growth at 0.01 µM [31]: 98%; growth at 0.1 µM [32]: 112%; growth at 100 µM [33]: -36%; growth at 100 µM [34]: -48%; growth at 1 µM [35]: 110% |
| Cc1nc2cc(O)c(O)cc2cc1Oc1ccc(NC(=O)Nc2ccc(Cl)c(Cl)c2)cc1 | 93% | 122% | 99% | 9% | 101% | 86% | 97% | 103% | 2% | 95% | 7% | 86% | 85% | -18% | -20% | 97% | 100% | -3% | 85% | 76% | – |
| COc1cc2cc(Oc3ccc(NC(=O)Nc4cc(C(F)(F)F)cc(C(F)(F)F)c4)cc3)c(C)nc2cc1OC | – | – | – | – | – | – | – | – | – | – | – | – | – | – | – | – | – | – | – | – | growth at 100 µM [21]: -66%; growth at 10 µM [22]: -32%; growth at 1 µM [23]: 54%; growth at 1 µM [24]: 39%; growth at 10 µM [25]: -76%; growth at 10 µM [26]: -55%; growth at 0.01 µM [27]: 97%; growth at 10 µM [28]: -75%; growth at 0.1 µM [29]: 94%; growth at 0.1 µM [30]: 107%; growth at 0.01 µM [31]: 99%; growth at 0.1 µM [32]: 95%; growth at 100 µM [33]: -94%; growth at 100 µM [34]: -19%; growth at 1 µM [35]: 79% |
